Test results: patent US5502057A, “Polysubstituted pyridines useful for treating lipoproteinanaemia and arteriosclerosis” (Bayer Aktiengesellschaft, priority 1988, dated 1996)
Counter-ions that a name gives are not always drawn.

Tested on: healthy beagle dogs
Experiment: Subchronic action on blood cholesterol values of dogs (feeding experiment)
Format: in vivo, dog
Conditions: 8 mg/kg p.o. daily, after 2-week administration, cholestyramine (4 g/100 g of feed) in feed, compared with serum cholesterol before the administration period
Experimental: The subchronic action of the disubstituted pyridines on blood cholesterol values of dogs was tested in feeding experiments extending over several weeks. For this, the substance to be investigated was given p.o. once daily in a capsule to healthy beagle dogs together with the feed over a time period of several weeks. In addition, during the entire experimental period, i.e. before, during and after the administration period, the substance cholestyramine (4 g/100 g of feed) to be investigated was mixed with the feed as the […] sequestrant. Twice weekly, venous blood was taken from the dogs and the serum cholesterol was determined enzymatically. The serum cholesterol values during the administration period were compared with the serum cholesterol values before the administration period (controls).

SMILES: CC(C)c1nc(C(C)C)c(/C=C/C(O)CC(O)CC(=O)O)c(-c2ccc(F)cc2)c1/C=C/C(O)CC(O)CC(=O)O (stereo not shown) [Na salt of Example 8, 2,6-diisopropyl 4-(4-fluorophenyl)-3,5-di-(sodiumerythro-(E)-3,5-dihydroxy-hept-6-enoat-7-yl)-pyridine]
- Lowering of the serum cholesterol: about 22.4%
